The source of these data is US4689227A, “Antibacterial composition” (Hoffmann-La Roche Inc., priority 1984, dated 1987).

Converted amounts (≈) assume the structure as drawn. Like-named read-outs stand apart in the source and are kept apart here.

Format in all cases: cell-based
For experiment [1], the system named is Acinetobacter anitratus 5I-156. Put plainly: In vitro activity (MIC), agar dilution test. Particulars: Acinetobacter calcoaceticus, 5I156. The text has this: (§1) In the following Table there are presented for the composition in accordance with the invention the minimum inhibitory concentrations (MIC values in μ/ml) determined in in vitro comparative tests in the case of various infections with pathogenic microorganisms.
(§2) In vitro activity of compound A and mecillinam (MEC) against various
(§3) of bacteria (MIC μg/ml) Method: Agar dilution test with DST agar

Experiment [2] has as its system Citrobacter freundii 1385 b. Put plainly: In vitro activity (MIC), agar dilution test.
Description: as §1, §2, §3

In experiment [3] the test system is Citrobacter freundii 1982. Put plainly: In vitro activity (MIC), agar dilution test.
Description: as §1, §2, §3
Background: Agar dilution tests growth on a series of plates holding different concentrations.

Experiment [4] relates to Enterobacter agglomerans 960. Put plainly: In vitro activity (MIC), agar dilution test. Particulars: Pantoea agglomerans.
Description: as §1, §2, §3

The subject of another experiment is Enterobacter cloacae 163. Put plainly: In vitro activity (MIC), agar dilution test.
Description: as §1, §2, §3

Another experiment relates to Enterobacter cloacae 5. Kind of experiment: In vitro activity (MIC), agar dilution test.
Description: as §1, §2, §3

The next experiment has as its system Enterobacter cloacae 908. Kind of experiment: In vitro activity (MIC), agar dilution test.
Description: as §1, §2, §3

The test system of experiment [5] is Enterobacter cloacae MK 1617. Put plainly: In vitro activity (MIC), agar dilution test.
Description: as §1, §2, §3

For experiment [6], the system named is Enterobacter cloacae MK 373. Kind of experiment: In vitro activity (MIC), agar dilution test. Particulars: MK373.
Description: as §1, §2, §3

The next experiment has as its system Enterobacter cloacae P99. Kind of experiment: In vitro activity (MIC), agar dilution test.
Description: as §1, §2, §3

For the next experiment, the system named is Escherichia coli 5/9. Kind of experiment: In vitro activity (MIC), agar dilution test.
Description: as §1, §2, §3

For experiment [7], the system named is Pseudomonas aeruginosa 143724 R. Kind of experiment: In vitro activity (MIC), agar dilution test.
Description: as §1, §2, §3

Experiment [8] concerns Pseudomonas aeruginosa 1920 E. Kind of experiment: In vitro activity (MIC), agar dilution test.
Description: as §1, §2, §3

In experiment [9] the test system is Pseudomonas aeruginosa 1937 E. Put plainly: In vitro activity (MIC), agar dilution test.
Description: as §1, §2, §3

Experiment [10] concerns Pseudomonas aeruginosa 5646. Put plainly: In vitro activity (MIC), agar dilution test.
Description: as §1, §2, §3

The subject of experiment [11] is Pseudomonas aeruginosa 5748. Kind of experiment: In vitro activity (MIC), agar dilution test.
Description: as §1, §2, §3

For the next experiment, the system named is Enterobacter strains. Kind of experiment: Activity and synergism against Enterobacter strains.
Description: In the scope of the present invention it has been ascertained that compound A, which has hitherto not been considered as a combination partner for mecillinam, is especially well suited for such a combination.
as §1

Setting [12] is: single substance, DST agar (Oxoid), read-out: MIC.

In the case of `CC1(C)S[C@@H]2[C@H](/N=C/N3CCCCCC3)C(=O)N2[C@H]1C(=O)O` [MEC, mecillinam], the MIC (in [1]; in experiment [2]; in [3]; in experiment [4]; with Enterobacter cloacae 163; with Enterobacter cloacae 5) was more than 256 µg/mL in each case. Further, the MIC (in the experiment with Enterobacter cloacae 908; in [5] (MK1617); in [6]; against Enterobacter cloacae P99; with Escherichia coli 5/9; in experiment [7]) was more than 256 µg/mL in each case. Also, the MIC in [8], in [9], in experiment [10] and in experiment [11] was more than 256 µg/mL in each case. Besides, in the experiment with Enterobacter strains, the “sensitivity of the strains” value is “resistant”.
As to `NC(=O)OC[C@@H]1[C@H](NC(=O)/C(=N\OCC(=O)O)c2csc(N)n2)C(=O)N1S(=O)(=O)O` [Compound A, (2S,3S)-3-((Z)-2-(2-amino-4-thiazolyl)-2-[(carboxymethoxy)imino]acetamido)-2-[(carbamoyloxy)-methyl]-4-oxo-1-azetidinesulphonic acid], the MIC in experiment [1] (setting [12]) was 16 µg/mL (≈ 34.3 µM); in experiment [2] (setting [12]), 8 µg/mL (≈ 17.2 µM); in experiment [3] (setting [12]), 4 µg/mL (≈ 8.58 µM); in experiment [4] (setting [12]), 16 µg/mL (≈ 34.3 µM); with Enterobacter cloacae 163 (setting [12]), 32 µg/mL (≈ 68.6 µM); in the experiment on Enterobacter cloacae 5 (setting [12]), 8 µg/mL (≈ 17.2 µM). Further, the MIC came to 32 µg/mL (≈ 68.6 µM) in the experiment with Enterobacter cloacae 908 (setting [12]); 32 µg/mL (≈ 68.6 µM) in [5] (MK1617, single substance, DST agar (Oxoid), read-out: MIC); 4 µg/mL (≈ 8.58 µM) in experiment [6]; 16 µg/mL (≈ 34.3 µM) with Enterobacter cloacae P99; 2 µg/mL (≈ 4.29 µM) in the experiment with Escherichia coli 5/9 (setting [12]); 8 µg/mL (≈ 17.2 µM) in experiment [7] (setting [12]). Besides, the MIC worked out at 4 µg/mL (≈ 8.58 µM) in [8] (setting [12]), 2 µg/mL (≈ 4.29 µM) in [9] (setting [12]), 8 µg/mL (≈ 17.2 µM) in [10] (setting [12]) and 8 µg/mL (≈ 17.2 µM) in experiment [11]. Moreover, in the experiment on Enterobacter strains, the “sensitivity of the strains” value is on record as “only moderately sensitive”.

Usually MIC stands for the lowest concentration found to suppress growth.
